Experimental findings from patent US10828301B2, “2,4-pyrimidinediamine compounds and their uses” (Rigel Pharmaceuticals, Inc, priority 2002, dated 2020) are described below.

Assay [1] has as its system ionophore-induced degranulation of mast and/or basophil cells. Description: Ionophore (ionomycin or A23187)-induced degranulation counter screen. The class given is cell-based. The note with it: Mus musculus; high density BMMC, ionomycin activation, hexosaminidase release; read-out: BMMC Ionomycin Hexos. IC50. From the text: In addition to the FcεRI or FcγRI degranulation pathways discussed above, degranulation of mast and/or basophil cells can be induced by other agents. For example, ionomycin, a calcium ionophore that bypasses the early FcεRI or FcγRI signal transduction machinery of the cell, directly induces a calcium flux that triggers degranulation. Referring again to FIG. 2, activated PLCγ initiates pathways that lead to, among other things, calcium ion mobilization and subsequent degranulation. As illustrated, this Ca^2+ mobilization is triggered late in the FcεRI signal transduction pathway. […] Other ionophores that induce degranulation in this manner include A23187. The ability of granulation-inducing ionophores such as ionomycin to bypass the early stages of the FcεRI and/or FcγRI signaling cascades may be used as a counter screen to identify active compounds of the invention that specifically exert their degranulation-inhibitory activity by blocking or inhibiting the early FcεRI or FcγRI signaling cascades, as discussed above.
Assays suitable for determining the IC50 of ionophore-induced degranulation include any of the previously-described degranulation assays, with the modification that the cells are stimulated or activated with a degranulation-inducing calcium ionophore such as ionomycin or A23187 (A.G. Scientific, San Diego, Calif.) instead of anti-IgE antibodies or an IgE-specific allergen. Specific assays for assessing the ability of a particular 2,4-pyrimidinediamine compound of the invention to inhibit ionophore-induced degranulation are provided in the Examples section.
A general note: A counterscreen serves to expose hits that act by an unwanted route or on another target.

Assay [2] concerns cultured human mast cells (CHMC). The assay is described as follows: CHMC low cell density IgE activation: tryptase and LTC4 assays. The class given is cell-based. The settings on record: Homo sapiens, Mast cell, Low Density CHMC, anti-IgE activation. Put shortly:
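Degranulation measured after 30 min anti-IgE challenge at 37° C of CHMC plated at 1000-1500 cells/well following 1 h preincubation. Readouts: LTC4 by ELISA on donor-specific diluted supernatants, and tryptase activity from a 30 min room-temperature substrate reaction.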

The subject of assay [3] is bone marrow derived mast cells (BMMC). The assay is described as follows: BMMC high cell density IgE activation: degranulation (hexosiminidase, histamine), leukotriene (LTC4) and cytokine (TNFalpha, IL-6) assays. The class given is cell-based. The settings on record: Mus musculus, anti-IgE activation, hexosaminidase release, read-out: BMMC anti-IgE hexos IC50.
The test system of assay [4] is basophils in whole human peripheral blood. Description: Basophil IgE activation: histamine release assay. Format: cell-based. The note with it: Homo sapiens, anti-IgE activation. As for the experimental part:
The basophil activation assay was carried out using whole human peripheral blood from donors allergic to dust mites with the majority of the red blood cells removed by dextran sedimentation. Human peripheral blood was mixed 1:1 with 3% dextran T500 and RBCs were allowed to settle for 20-25 min. The upper fraction was diluted with 3 volumes of D-PBS and cells were spun down for 10 min at 1500 rpm, RT. Supernatant was aspirated and cells were washed in an equal volume MT-buffer. Finally, cells were resuspended in MT-buffer containing 0.5% DMSO in the original blood volume. 80 uL cells were mixed with 20 uL compound in the presence of 0.5% DMSO, in triplicate, in a V-bottom 96-well tissue culture plate. A dose range of 8 compound concentrations was tested resulting in a 10-point dose response curve including maximum (stimulated) and minimum (unstimulated) response. […] The cells were stimulated for 30 minutes at 37° C., 5% CO2. The plate was spun for 10 min at 1500 rpm at room temperature and 80 uL the supernatant was harvested for histamine content analysis using the histamine ELISA kit supplied by Immunotech. The ELISA was performed according to supplier's instructions.

For assay [5] the test system is unchanged. The assay is described as follows: Basophil ionomycin activation: histamine release assay. Format: cell-based. The note with it: Homo sapiens. Here is the method: Assays for ionomycin-induced basophil cell degranulation were carried out as described for the Basophil IgE or Dustmite Activation Assay (Section 6.4.6, supra), with the exception that following incubation with compound, cells were stimulated with 20 μl of 2 μM ionomycin.

Assay [6] has as its system Jurkat cells. Description: Jurkat (T-cell) toxicity, light scatter. Format: cell-based. The settings on record: Homo sapiens, 18-24 hr, flow cytometric light scatter, read-out: Toxicity Jurkat Light Scat. As for the experimental part: Dilute Jurkat cells to 2×10^5 cells/ml in complete RPMI (10% heat-inactivated fetal bovine serum) media and incubate at 37° C., 5% CO2 for 18 hours. Add 65 ul cells at 7.7×10^5 cells/ml to a 96-well V-bottom plate (TC-treated, Costar) containing 65 ul 2× compound (final vehicle concentration is 0.5% DMSO, 1.5% MeOH). Mix, incubate plates for 18-24 hr at 37° C., 5% CO2. Toxicity was assessed by flow cytometric analysis of cellular light scatter
Background: A flow cytometer gives signals particle by particle.

The test system of assay [7] is B-cell line BJAB. The assay is described as follows: BJAB (B-cell) toxicity, light scatter. Format: cell-based. The note with it: Homo sapiens; BJAB B-cells, flow cytometric light scatter; read-out: Toxicity BJAB Light Scat. Here is the method:
The B-cell line BJAB was cultured in log phase in RPMI1640+10% heat-inactivated fetal bovine serum, lx L-glutamine, lx penicillin, lx […] and 1× beta-mercaptoethanol at 37° C., 5% CO2. First, BJABs were harvested, spun and resuspended in culture medium to a concentration of 7.7×10^5 cells/mL. 65 uL cells were mixed with 65 uL compound, in duplicate and in the presence of 0.1% DMSO in a V-bottomed 96-well tissue culture plate. Cells were incubated with compound at various dilutions at 37° C., 5% CO2. Toxicity was assessed by flow cytometric analysis of cellular light scatter.

Assay [8] deals with FcγRI receptor-mediated degranulation. The assay is described as follows: FcγRI-mediated degranulation (activation with anti-human IgG Fab fragment). The settings on record: cells not primed with IgE, activated with rabbit anti-human IgG Fab fragment.
Assay [9] deals with cultured human mast cells (CHMC). Description: CHMC low cell density ionomycin activation: tryptase assay. The class given is cell-based. The settings on record: Homo sapiens, Mast cell, Low Density CHMC, ionomycin activation.
The mark [10] stands for this setting: LTC4 readout, read-out: CHMC anti-IgE LTC4.
The mark [11] stands for this setting: hexosaminidase readout, read-out: CHMC anti-IgE Hexos.
Where [12] appears, read: tryptase readout, read-out: CHMC anti-IgE Tryptase.
The mark [13] stands for this setting: hexosaminidase readout, read-out: CHMC Ionomycin Hexos.
The mark [14] stands for this setting: tryptase readout, read-out: CHMC Ionomycin Tryptase.

Regarding `Oc1cccc(Nc2ncc(F)c(Nc3ccc4c(c3)OCCO4)n2)c1` [Compound R926210, N4-(3,4-Ethylenedioxyphenyl)-5-fluoro-N2-(3-hydroxyphenyl)-2,4-pyrimidinediamine], the IC50 in assay [1] is above 10000 nM; in assay [2] (setting [10]), 800 nM; in assay [3] it was 600 nM; in [4], 370 nM; in [5], above 10000 nM; in assay [6] it was above 10000 nM. Further, the IC50 in assay [7] is above 10000 nM.
Regarding `CNC(=O)COc1cccc(Nc2ncc(F)c(Nc3ccc(OC(F)(F)F)c(Cl)c3)n2)c1` [Compound R920410, N4-(3-Chloro-4-trifluoromethoxyphenyl)-5-fluoro-N2-[3-(N-methylamino)carbonylmethyleneoxyphenyl]-2,4-pyrimidinediamine], in assay [8], the “inhibition of FcγRI-mediated degranulation” value is listed as “inhibit FcγRI-mediated degranulation”.
Turning to `CCOc1ccc(Nc2ncc(F)c(Nc3ccc4c(c3)OCCO4)n2)cc1` [Compound R926211, N2-(4-Ethoxyphenyl)-N4-(3,4-ethylenedioxyphenyl)-5-fluoro-2,4-pyrimidinediamine], the IC50 is above 10000 nM in assay [1]; 2700 nM in assay [2] (setting [11]); 1300 nM in [2] (setting [12]); 3900 nM in assay [3]; 1550 nM in assay [4]; above 10000 nM in assay [9] (setting [13]). In addition, the IC50 in assay [9] (setting [14]) was 9800 nM; in assay [5], above 10000 nM.
As to `Cc1cc(Nc2ncc(F)c(Nc3ccc4c(c3)NC(=O)C(F)(F)O4)n2)cc(Cl)c1O` [Compound R926971], the “inhibition of FcγRI-mediated degranulation” value in assay [8] is recorded as “inhibit FcγRI-mediated degranulation”.
In the case of `Oc1cccc(Nc2ccnc(Nc3cccc(O)c3)n2)c1` [Compound R926249, N2,N4-Bis(3-hydroxyphenyl)-2,4-pyrimidinediamine], the IC50 in assay [2] (setting [10]) was 250 nM; in assay [2] (setting [12]) it was 500 nM; in assay [9] (setting [14]), above 10000 nM; in assay [6] it was above 10000 nM; in [7], above 10000 nM.
On to `Cc1cccc(Nc2ncc(F)c(Nc3cccc(C)c3)n2)c1` [Compound R092788, N2,N4-bis(3-methylphenyl)-5-fluoro-2,4-pyrimidinediamine], for which the IC50 in assay [6] and in assay [7] was above 10000 nM each time.
As for `Oc1cccc(Nc2ncc(Br)c(Nc3cccc(O)c3)n2)c1` [Compound R925778, N2,N4-Bis(3-hydroxyphenyl)-5-bromo-2,4-pyrimidinediamine], the IC50 in assay [2] (setting [10]) was 180 nM; in assay [2] (setting [12]), 225 nM; in [9] (setting [14]), above 10000 nM; in [6] it was above 10000 nM; in assay [7], above 10000 nM.
Consider `COc1ccc(Nc2ncc(F)c(Nc3ccc(OC)c(OC)c3)n2)cc1OC` [Compound R926110, N2,N4-Bis(3,4-dimethoxyphenyl)-5-fluoro-2,4-pyrimidinediamine], for which the IC50 in [1] was found to be 4500 nM; in assay [2] (setting [10]) it was 1420 nM; in [2] (setting [11]), 1200 nM; in assay [2] (setting [12]), 1070 nM; in assay [3], 1000 nM; in [4] it was 300 nM. For the same compound, the IC50 in [9] (setting [13]), in assay [9] (setting [14]), in assay [5], in [6] and in assay [7] was above 10000 nM throughout.
Turning to `CC(=O)Oc1cccc(Nc2ncc(F)c(Nc3cccc(OC(C)=O)c3)n2)c1` [Compound R926387, N2,N4-Bis(3-acetyloxyphenyl)-5-fluoro-2,4-pyrimidinediamine], the IC50 is 700 nM in [2] (setting [10]); 650 nM in assay [2] (setting [12]); above 10000 nM in assay [9] (setting [14]); above 10000 nM in assay [6]; above 10000 nM in assay [7].
For the compound `COc1ccc(Nc2ncc(F)c(Nc3ccc4c(c3)OCCO4)n2)cc1OC` [Compound R926212, N2-(3,4-Dimethoxyphenyl)-N4-(3,4-ethylenedioxyphenyl)-5-fluoro-2,4-pyrimidinediamine], the IC50 in assay [1] is 5000 nM; in assay [2] (setting [10]) it was 450 nM; in assay [2] (setting [12]) it was 654 nM; in [3] it was 500 nM; in assay [4], 500 nM; in assay [9] (setting [14]), above 10000 nM. Moreover, the IC50 in assay [5] was above 10000 nM.
Regarding `CCOc1ccc(Nc2nc(Nc3cccc(O)c3)ncc2F)cc1` [Compound R926146, N4-(4-Ethoxyphenyl)-N2-(3-hydroxyphenyl)-5-fluoro-2,4-pyrimidinediamine], the IC50 in assay [1] is 5000 nM; in assay [2] (setting [10]), 1590 nM; in [2] (setting [11]), 761 nM; in assay [3], 1350 nM; in [9] (setting [13]), 6700 nM; in assay [6], above 10000 nM. Further, the IC50 in assay [7] was above 10000 nM.
`Cc1cnc(Nc2cccc(O)c2)nc1Nc1cccc(O)c1` [Compound R926248, N2,N4-Bis(3-hydroxyphenyl)-5-methyl-2,4-pyrimidinediamine]: the IC50 in assay [2] (setting [10]) was 760 nM; in assay [2] (setting [12]), 900 nM; in assay [9] (setting [14]) it was above 10000 nM; in assay [6], above 10000 nM; in assay [7], above 10000 nM.
For `COc1ccc(Nc2ncc(F)c(Nc3ccc(OC)cc3)n2)cc1` [Compound R926017, N2,N4-Bis(4-methoxyphenyl)-5-fluoro-2,4-pyrimidinediamine], the IC50 is 9600 nM in assay [1]; 1430 nM in assay [2] (setting [11]); 1400 nM in [3]; 530 nM in assay [4]; above 10000 nM in assay [9] (setting [13]); above 10000 nM in assay [5].
Turning to `Oc1cccc(Nc2nc(Nc3ccc4c(c3)OCCO4)ncc2Br)c1` [Compound R925797, 5-Bromo-N2-(3,4-ethylenedioxyphenyl)-N4-(3-hydroxyphenyl)-2,4-pyrimidinediamine], the IC50 in [2] (setting [10]) is 280 nM; in assay [2] (setting [12]) it was 850 nM; in assay [9] (setting [14]) it was above 10000 nM; in assay [6] it was above 10000 nM; in assay [7], above 10000 nM.
As for `CCOc1ccc(Nc2nc(Nc3ccc(OC)c(OC)c3)ncc2F)cc1` [Compound R926108, N2-(3,4-Dimethoxyphenyl)-N4-(4-ethoxyphenyl)-5-fluoro-2,4-pyrimidinediamine], the IC50 in assay [1] was above 10000 nM; in assay [2] (setting [10]), 760 nM; in [2] (setting [11]), 787 nM; in [3] it was 900 nM; in [4], 950 nM; in [9] (setting [13]), 6400 nM. In addition, the IC50 in assay [5], in assay [6] and in assay [7] was above 10000 nM throughout.
